Values after ≈ are worked out from the molar mass of the structure shown. Where two headings read alike, the source gives them in different places.
What was measured:
[1] = oral administration to rats, versus a formulation in lipid alone; cited from earlier work
[2] = Solubility of ingenol-3-angelate in co-solvents; format: physicochemical; details: organic solvent or mixture
Text: In order to effect a highly efficient dissolution of the ingenol derivative it may be favourably to add a co-solvent to the composition. The co-solvent may be selected from the group consisting of lower alcohols, such as n-propanol, isopropanol, n-butanol, 2-butanol or benzyl alcohol, diols such as propylene glycol, a pyrrolidone such as N-methylpyrrolidone or N-hydroxyalkylpyrrolidone, an azone, ethyl acetate, dodecyl amine, diethylene glycol monoethyl ether, a fatty acid such as oleic or lauric acid, propylene carbonate, menthol or limolene. In particular, ingenol-3-angelate is soluble to freely soluble in the co-solvents benzyl alcohol (201-223 mg/ml), N-methylpyrrolidone (104-260 mg/ml), ethyl acetate (102-255 mg/ml), isopropanol (225-248 mg/ml) and diethylene glycol monoethyl ether (57-114 mg/ml). Some of these co-solvents, such as lower alcohols, may also, as required, act as penetration enhancers aiding the penetration of the ingenol derivative into the viable layers of the skin.

Row | Structure (SMILES) | bioavailability of seocalcitol [1] | solubility ([2]; co-solvent N-methylpyrrolidone, read-out: solubility in N-methylpyrrolidone) [mg/mL] | solubility ([2]; co-solvent benzyl alcohol, read-out: solubility in benzyl alcohol) [mg/mL] | solubility ([2]; co-solvent diethylene glycol monoethyl ether, read-out: solubility in diethylene glycol monoethyl ether) [mg/mL] | solubility ([2]; co-solvent ethyl acetate, read-out: solubility in ethyl acetate) [mg/mL] | solubility ([2]; co-solvent isopropanol, read-out: solubility in isopropanol) [mg/mL]
1 | C=C1/C(=C\C=C2/CCC[C@]3(C)[C@@H]([C@H](C)/C=C/C=C/C(O)(CC)CC)CC[C@@H]23)C[C@@H](O)C[C@@H]1O [seocalcitol] | not improved |  |  |  |  | 
2 | C/C=C(/C)C(=O)O[C@H]1C(C)=C[C@]23C(=O)[C@@H](C=C(CO)[C@@H](O)[C@]12O)[C@H]1[C@@H](C[C@H]3C)C1(C)C [ingenol-3-angelate, 2-methyl-2(Z)-butenoic acid (1aR,2S,5R,5aS,6S,8aS,9R,10aR)-5,5a-dihydroxy-4-(hydroxymethyl)-1,1,7,9-tetramethyl-11-oxo-1a,2,5,5a,6,9,10,10a-octahydro-1H-2,8a-methanocyclopenta[a]cyclopropa[e]cyclodecen-6-yl ester] |  | 104 to 260 (≈ 242 to 604 mM) | 201 to 223 (≈ 467 to 518 mM) | 57 to 114 (≈ 132 to 265 mM) | 102 to 255 (≈ 237 to 592 mM) | 225 to 248 (≈ 523 to 576 mM)

Source: US20150133543A1, “TOPICAL GEL COMPOSITION COMPRISING AN INGENOL DERIVATIVE AND A SOLVENT MIXTURE” (LEO Laboratories Limited, priority 2012, published 2015)
